The text below walks through data of US20260007133A1, “HERBICIDAL COMPOSITION COMPRISING AZINE COMPOUNDS” (BASF SE, priority 2022, published 2026).

Molecules are shown by their SMILES.

Common to all, as to type: in vivo
The test system of test [1] is Amaranthus retroflexus. The experiment in a line: Greenhouse pre-emergence (PRE) herbicidal test on AMARE. Here is the method: The culture containers used were plastic pots containing loamy sand with approximately 3.0% of humus as substrate. The seeds of the test plants were sown separately for each species.
The containers were irrigated gently to promote germination and growth and subsequently covered with transparent plastic hoods until the plants had rooted.
Depending on the species, the plants were kept at 10-25° C. and 20-35° C., respectively.
The test period extended over 2 to 4 weeks. During this time, the plants were tended and their response to the individual treatments was evaluated.
Evaluation was carried out using a scale from 0 to 100. 100 means no emergence of the plants, or complete destruction of at least the above-ground parts, and 0 means no damage or normal course of growth. A good herbicidal activity is given at values of at least 70, and very good herbicidal activity is given at values of at least 85.
As indicated application was either post emergent (POST) at the respective growth stage (GS) of the weed (BBCH code), or pre-emergent (PRE). […]

Test [2] relates to Ambrosia artemisiifolia. The experiment in a line: Greenhouse pre-emergence (PRE) herbicidal test on AMBEL. To be noted: for % activity: AMBEL PRE.
In test [3] the test system is Commelina benghalensis. The experiment in a line: Greenhouse pre-emergence (PRE) herbicidal test on COMBE. Put shortly:
(§1)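 Herbicidal effect was assessed 20 DAT after pre-emergence treatment of sown pots, using a 0-100 scale where 100 means no emergence or destruction of at least the above-ground parts.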

For test [4], the system named is Abutilon theophrasti. In words: Greenhouse pre-emergence (PRE) herbicidal test on ABUTH. Conditions: Abutilon theophrasti, pre-emergence. Put shortly:
as §1

Test [5] has as its system Alopecurus myosuroides. The experiment in a line: Greenhouse pre-emergence (PRE) herbicidal test on ALOMY. To be noted: Alopecurus myosuroides, pre-emergence. Summed up: as §1
The subject of test [6] is Echinochloa crus-galli. The experiment in a line: Greenhouse pre-emergence (PRE) herbicidal test on ECHCG. To be noted: Echinochloa crus-galli, pre-emergence.
In test [7] the test system is Euphorbia heterophylla. The experiment in a line: Greenhouse pre-emergence (PRE) herbicidal test on EPHHL. To be noted: Euphorbia heterophylla, pre-emergence. Summed up:
as §1

Test [8] deals with Lolium multiflorum. In words: Greenhouse pre-emergence (PRE) herbicidal test on LOLMU. To be noted: Lolium multiflorum, pre-emergence. Summed up: as §1
In test [9] the test system is Abutilon theophrasti. The experiment in a line: Greenhouse post-emergence (POST) herbicidal test on ABUTH. To be noted: Abutilon theophrasti, post-emergence. Put shortly:
(§2)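 Plants grown in pots of loamy sand (~3.0% humus) to 3–15 cm height, then sprayed with compounds suspended or emulsified in water (formulated as 5% by weight emulsion concentrate). Kept at 10-25° C or 20-35° C by species; injury scored 0–100 (100 = complete destruction) at 20 DAT.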

Test [10] concerns Amaranthus retroflexus. The experiment in a line: Greenhouse post-emergence (POST) herbicidal test on AMARE. To be noted: Amaranthus retroflexus, post-emergence. Summed up:
as §2

The test system of test [11] is Digitaria sanguinalis. In words: Greenhouse post-emergence (POST) herbicidal test on DIGSA. To be noted: Digitaria sanguinalis, post-emergence. Put shortly:
as §2

Test [12] has as its system Echinochloa crus-galli. The experiment in a line: Greenhouse post-emergence (POST) herbicidal test on ECHCG. To be noted: Echinochloa crus-galli, post-emergence, 432 h. Summed up:
as §2

The test system of test [13] is Euphorbia heterophylla. The experiment in a line: Greenhouse post-emergence (POST) herbicidal test on EPHHL. Conditions: Euphorbia heterophylla, post-emergence, 432 h, read-out: % activity. Summed up: as §2
For test [14], the system named is Geranium pusillum. In words: Greenhouse post-emergence (POST) herbicidal test on GERPU. Conditions: Geranium pusillum, post-emergence, 432 h, read-out: % activity. Put shortly: as §2
Where [15] appears, read: Ambrosia artemisiifolia, pre-emergence, 432 h, read-out: % activity.
[16] abbreviates: Ambrosia artemisiifolia, pre-emergence, 480 h, read-out: % activity.
[17] abbreviates: Commelina benghalensis, pre-emergence, 480 h, read-out: % activity.

Regarding `COc1c(Cl)ccc(-c2nc(C(=O)OCc3ccccc3)c(Cl)c(N)c2F)c1F` [Florpyrauxifen-Benzyl, florpyrauxifen-benzyl], the “% activity” value in test [1] (AMARE PRE, use rate 5 gai/ha) stood at 0%; in [2] (use rate 1.25 gai/ha) it was 30%; in test [2] (use rate 5 gai/ha), 45%; in test [3] (COMBE PRE, use rate 5 gai/ha), 45%.
Take `CS(=O)(=O)NC(=O)c1cc(Oc2ccc(C(F)(F)F)cc2Cl)ccc1[N+](=O)[O-]` [Fomesafen, fomesafen]: the inhibition at […] in test [4] (480 h, PRE, ABUTH, use rate 2.5 gai/ha, 20 DAT, read-out: solo application % activity) amounted to 0%; in test [5] (480 h, PRE, ALOMY, use rate 2.5 gai/ha, 20 DAT, read-out: solo application % activity) it was 0%; in test [1] (Amaranthus retroflexus, pre-emergence, 480 h, PRE, AMARE, use rate 2.5 gai/ha, 20 DAT, read-out: solo application % activity) it was 0%; in test [2] (Ambrosia artemisiifolia, pre-emergence, 480 h, PRE, AMBEL, use rate 2.5 gai/ha, 20 DAT, read-out: solo application % activity), 0%; in [3] (Commelina benghalensis, pre-emergence, 480 h, PRE, COMBE, use rate 2.5 gai/ha, 20 DAT, read-out: solo application % activity) it was 10%; in test [6] (480 h, PRE, ECHCG, use rate 2.5 gai/ha, 20 DAT, read-out: solo application % activity), 0%. For the same molecule, the inhibition at […] in test [7] (480 h, PRE, EPHHL, use rate 2.5 gai/ha, 20 DAT, read-out: solo application % activity) is 0%; in test [8] (480 h, PRE, LOLMU, use rate 2.5 gai/ha, 20 DAT, read-out: solo application % activity) it was 0%; in test [9] (480 h, POST, ABUTH, use rate 2.5 gai/ha, 20 DAT, read-out: solo application % activity) it was 20%. For the same molecule, the inhibition at 10 g/ha in [4] (480 h, PRE, ABUTH, use rate 10 gai/ha, 20 DAT, read-out: solo application % activity) turned out to be 0%; in test [5] (480 h, PRE, ALOMY, use rate 10 gai/ha, 20 DAT, read-out: solo application % activity), 0%; in test [1] (Amaranthus retroflexus, pre-emergence, 480 h, PRE, AMARE, use rate 10 gai/ha, 20 DAT, read-out: solo application % activity), 25%; in test [2] (Ambrosia artemisiifolia, pre-emergence, 480 h, PRE, AMBEL, use rate 10 gai/ha, 20 DAT, read-out: solo application % activity), 0%; in [3] (Commelina benghalensis, pre-emergence, 480 h, PRE, COMBE, use rate 10 gai/ha, 20 DAT, read-out: solo application % activity), 10%; in test [6] (480 h, PRE, ECHCG, use rate 10 gai/ha, 20 DAT, read-out: solo application % activity) it was 0%. Besides, the inhibition at 10 g/ha in [7] (480 h, PRE, EPHHL, use rate 10 gai/ha, 20 DAT, read-out: solo application % activity) amounted to 0%; in test [8] (480 h, PRE, LOLMU, use rate 10 gai/ha, 20 DAT, read-out: solo application % activity), 0%; in test [9] (480 h, POST, ABUTH, use rate 10 gai/ha, 20 DAT, read-out: solo application % activity), 20%; in [10] (480 h, POST, AMARE, use rate 10 gai/ha, 20 DAT, read-out: solo application % activity), 25%; in [11] (480 h, POST, DIGSA, use rate 10 gai/ha, 20 DAT, read-out: solo application % activity), 25%.
Regarding `CCC(=O)Nc1ccc(Cl)c(Cl)c1` [Propanil, propanil], the pest or weed control at 500 g/ha worked out at 0% in [4] (432 h, read-out: % activity); 0% in [5] (432 h, read-out: % activity); 0% in test [1] (Amaranthus retroflexus, pre-emergence, 432 h, read-out: % activity); 0% in test [2] (setting [15]); 0% in [6] (432 h, read-out: % activity); 0% in [8] (432 h, read-out: % activity). The pest or weed control at 500 g/ha in test [9] (432 h, read-out: % activity) stood at 5%; in [10] (432 h, read-out: % activity), 0%; in [11] (432 h, read-out: % activity), 10%; in [12] (read-out: % activity), 0%; in [14], 40%. Besides, the pest or weed control at 250 g/ha in test [5] (432 h, read-out: % activity) was 0%; in test [2] (setting [15]), 0%; in [3] (Commelina benghalensis, pre-emergence, 432 h, read-out: % activity) it was 0%; in test [6] (432 h, read-out: % activity), 0%; in [7] (432 h, read-out: % activity), 0%; in test [8] (432 h, read-out: % activity) it was 0%. The pest or weed control at 250 g/ha worked out at 0% in test [9] (432 h, read-out: % activity); 0% in test [10] (432 h, read-out: % activity); 10% in test [11] (432 h, read-out: % activity); 0% in test [12] (read-out: % activity); 0% in test [13]. Moreover, the inhibition at 250 g/ha turned out to be 0% in [8] (432 h, PRE, LOLMU, 250 gai/ha, 18 DAT, read-out: % activity solo application); 10% in test [11] (432 h, POST, DIGSA, 250 gai/ha, 18 DAT, read-out: % activity solo application); 0% in test [12] (POST, ECHCG, 250 gai/ha, 18 DAT, read-out: % activity solo application). For the same molecule, the inhibition at 500 g/ha in test [8] (432 h, PRE, LOLMU, 500 gai/ha, 18 DAT, read-out: % activity solo application) was 0%; in [12] (POST, ECHCG, 500 gai/ha, 18 DAT, read-out: % activity solo application), 0%.
With `CCOC(=O)C(C)Oc1ccc(Oc2cnc3cc(Cl)ccc3n2)cc1` (stereo not drawn) [Quizalofop-Ethyl, quizalofop-ethyl], the pest or weed control at 2 g/ha in test [5] (480 h, read-out: % activity) came to 0%; in test [2] (setting [16]), 0%; in [3] (setting [17]), 0%; in [8] (480 h, read-out: % activity) it was 0%. The pest or weed control at 4 g/ha was determined as 0% in test [1] (Amaranthus retroflexus, pre-emergence, 480 h, read-out: % activity); 0% in test [2] (setting [16]); 0% in [3] (setting [17]); 5% in [7] (480 h, read-out: % activity); 0% in [8] (480 h, read-out: % activity).
